The assay has as its system human living fibroblast-derived 253G1 iPS cell strain. Briefly: Physical cell length (cell thickness) by reflecting quantitative phase microscope. It is filed as cell-based. As to conditions: 253G1 iPS cells on feeder, medium with 12.5 μM retinoic acid from 2nd day after seeding, further cultured 4 days (differentiated cell). As to the method:
On a 35 mm-diameter glass bottom dish with antireflection coating, a human living fibroblast-derived 253G1 iPS cell strain was seeded at 10-20 colonies/dish, and cultured on a feeder using a medium containing a final concentration of 4 ng/mL of human basic fibroblast growth factor (Primate ES Medium, ReproCELL Incorporated, Trade name: RCHEMD001). The size of one colony was approximately 200 μm. For the feeder cell, a mouse lung fibroblast cell was used. The cell was cultured until the 3rd day after the seeding. The medium was exchanged once a day.
The sample for differentiation of the iPS cell was transferred to a medium containing a final concentration of 4 ng/mL of human basic fibroblast growth factor and 12.5 μM of retinoic acid (Primate ES Medium) on the 2nd day after the seeding, and further cultured for 4 days. Generally, retinoic acid is used as a reagent for inducing differentiation. […]
For the cells in a 60 μm×80 μm visual field, three-dimensional data was obtained at intervals of 0.125 μm in horizontal direction and 0.32 μm in vertical direction using a reflecting quantitative phase microscope, and a tomographic image was produced from the obtained data. […] From the obtained bottom and surface shapes, a cell thickness (physical length) was measured to calculate a mean value.

With `CC1=C(/C=C/C(C)=C/C=C/C(C)=C/C(=O)O)C(C)(C)CCC1` [retinoic acid], the “Mean value of the physical cell length” value worked out at 6.25 μm.
